Test [1] has as its system APP/PS1ΔE9 mice. Nature of the test: Water maze test of spatial learning and memory. It counts as in vivo, mouse. How it is done:
Gemfibrozil was administered to 8-month-old APP/PS1ΔE9 mice (male and female halves). Gemfibrozil was first dissolved in dimethyl sulfoxide (DMSO) at a concentration of 50 mg/mL, and then diluted to a final concentration of 50 μg/mL with mouse drinking water to obtain a drug solution. The mice in the administration group were allowed to freely drink the drug solution containing gemfibrozil, in which the final concentration of DMSO in the solution was 0.1%; and the mice in the control group were allowed to drink water containing 0.1% DMSO freely. All drinking devices contained with Gemfibrozil were wrapped in aluminum foil to prevent decomposition by exposure. During dosing, the drug solution was replaced every 2 days. Mice were measured daily for water consumption. After 2 months of dosing, all mice were subjected to behavioural experiments. Mice were placed in the laboratory to be behaviourally tested one hour prior to the start of daily behavioural studies, and all behavioural experiments were completed between 9 and 17 o'clock. All experiments involving animals were approved by Animal Ethics Committee of the Kunming Institute of Zoology, CAS. According to the application, a water maze experiment was adopted to evaluate the learning and memory capacity of AD mice after Gemfibrozil was administered for 2 months. The parameters of the used water maze were as follows: a circular pool having a diameter of 120 cm, a height of 50 cm, and a water depth of about 30 cm; and a cylindrical plastic lifesaving platform having a diameter of 10 cm, a height of 29 cm, and submerged 1 cm below the water surface. The water temperature was kept at 20+1° C. During the test, in order to prevent the mice from seeing the platform, white plastic foam was added to the water to spread on the water surface evenly until the lifesaving platform could not be seen, and the water was replaced every two days. The circular pool was divided into four quadrants, and the lifesaving platform was placed in the center of the third quadrant. A camera was arranged right above the water maze and used for recording the movement track of the mice. Mice were placed from the rearing room into a room for the water maze experiment for 1 hour before the start of each day of the experiment. The mice were trained for 7 consecutive days. The starting position was randomly changed among the four quadrants, the mice were allowed to explore freely for 1 minute, and the time required for the mice to find a lifesaving platform (also known as latency) was measured. If the mouse was able to find the platform within 1 minute, it was allowed to sit on the platform for 20 seconds, so that it can remember the location of the lifesaving platform based on surrounding markers. […] Each mouse was trained at 90-minute intervals each day and randomly placed in the water maze in three different quadrants each day to look for the lifesaving platform. After 4 hours after the last training on the 7th day, the lifesaving platform of the water maze was removed. The mice were put into water, and the time, the distance and the speed of the mice around the lifesaving platform within 1 minute and the number of shuttles at the position of the lifesaving platform were measured, thereby evaluating the short-term memory capacity of the mice. After 72 hours after the last training on the 7th day, the lifesaving platform of the water maze was removed again. The mice were put into water, and the time, the distance and the speed of the mice around the lifesaving platform within 1 minute and the number of shuttles at the position of the lifesaving platform were measured, thereby evaluating the long-term memory capacity of the mice. During the experiment, the surrounding environment of the water maze should be kept consistent to avoid the influence of environmental factors. The behavior of the mice was followed and videotaped throughout the experiment using SMART 3.0 software (Panlab HARVARD, MA, USA). […]

For test [2], the system named is soluble Aβ. Nature of the test: Western blot of soluble Aβ in mouse brain tissue. The test is classed as in vivo. How it is done:
Gemfibrozil was administered to 8-month-old APP/PS1ΔE9 mice (male and female halves). Gemfibrozil was first dissolved in dimethyl sulfoxide (DMSO) at a concentration of 50 mg/mL, and then diluted to a final concentration of 50 μg/mL with mouse drinking water to obtain a drug solution. The mice in the administration group were allowed to freely drink the drug solution containing gemfibrozil, in which the final concentration of DMSO in the solution was 0.1%; and the mice in the control group were allowed to drink water containing 0.1% DMSO freely. All drinking devices contained with Gemfibrozil were wrapped in aluminum foil to prevent decomposition by exposure. During dosing, the drug solution was replaced every 2 days. Mice were measured daily for water consumption. After 2 months of dosing, all mice were subjected to behavioural experiments. Mice were placed in the laboratory to be behaviourally tested one hour prior to the start of daily behavioural studies, and all behavioural experiments were completed between 9 and 17 o'clock. All experiments involving animals were approved by Animal Ethics Committee of the Kunming Institute of Zoology, CAS.
4. Expression of Related Proteins by Western Blot
The specific steps were as follows:
1) Extracting protein: the protein was extracted from the mouse brain tissue using western and an IP lysate from Beyotime Biotechnology.
2) Determining protein concentration: HM and U251-APP cells and mouse brain proteins were measured using a BCA protein quantification kit, and the extracted proteins were used for subsequent detection.
3) Pretreatment before loading: each sample was loaded at 20 μg depending on the protein concentration. The protein denaturant anhydrous mercaptoethanol was first added to denature the proteins at 95° C. for 6 minutes. After denaturation, the sample was placed on ice and stood for 5 minutes.
4) Loading and performing ectrophoresis: the denatured protein samples were loaded to the corresponding wells to start electrophoresis.
5) Membrane transfer treatment: according to the ratio of the reagent required by 1 L of a membrane transfer solution (10× membrane transfer solution: anhydrous methanol:water=1:2:7), a certain amount of the membrane transfer solution was prepared, the sponge and filter paper were immersed in the membrane transfer solution, and the PVDF membrane was previously immersed in anhydrous methanol for 30 seconds to be activated. A membrane transfer plate was manufactured according to the sequence of sponge-filter paper-glue-membrane-filter paper-sponge (the protein was negatively charged, and was transferred to a PVDF membrane towards the positive electrode). […]

[3] abbreviates: hippocampus and cortex of APP/PS1ΔE9 mice, Western blot (A-B in FIG. 4).

Molecules are shown by their SMILES.

The source of these data is patent publication US12048680B2, “Use of Gemfibrozil and derivative thereof for treatment and/or prevention of neurodegenerative disease” (Kunming Institute of Zoology Chinese Academy of Sciences, priority 2018, dated 2024).

As for `Cc1ccc(C)c(OCCCC(C)(C)C(=O)O)c1` [Gemfibrozil, 2,2-dimethyl-5-(2,5-dimethylphenoxy) pentanoic acid], in test [1] (8-month-old APP/PS1ΔE9 mice, 50 μg/mL in drinking water for 2 months, 7 days of training, vs control group), the learning ability entry is listed as “significantly improved”. In test [1] (4 hours after the last training, platform removed, vs control group), the short-term memory capacity entry is recorded as “significantly improved”. Moreover, the long-term memory capacity result in test [1] (72 hours after the last training, platform removed) is “significantly improved”. In test [1] (APP/PS1ΔE9 mice, 50 μg/mL in drinking water for 2 months, training phase, vs control group (A in FIG. 1)), the “escape time (latency) required to reach the lifesaving platform” value is listed as “less than the control group”. The “range required to reach the lifesaving platform” value in test [1] (APP/PS1ΔE9 mice, 50 μg/mL in drinking water for 2 months, training phase, vs control group (B in FIG. 1)) is “less than the control group”. Besides, the “lingering time in the target quadrant” value in test [1] (long-term memory, 72 hours after the last training (G in FIG. 1)) is given as “increase”; in test [1] (short-term memory, 4 hours after the last training (D in FIG. 1)), “increase”. Moreover, the “distance in the target quadrant” value in test [1] (long-term memory, 72 hours after the last training (H in FIG. 1)) is listed as “increase”; in test [1] (short-term memory, 4 hours after the last training (E in FIG. 1)) it was “increase”. Besides, the “number of shuttles at the position of the lifesaving platform” value in test [1] (long-term memory, 72 hours after the last training (I in FIG. 1)) is given as “increases”; in test [1] (short-term memory, 4 hours after the last training (F in FIG. 1)), “increases”. In addition, the “ratio of Aβ42 and Aβ40 (soluble)” value in test [2] (between groups, Western blot (A-B in FIG. 4)) is “did not change significantly”. Further, the “level of Aβ40 (soluble)” value in test [2] (setting [3]) is given as “decreased significantly”. In addition, the “level of Aβ42 (soluble)” value in test [2] (setting [3]) was “decreased significantly”. In test [2] (hippocampus and cortex of APP/PS1ΔE9 mice, vs control group (A-B in FIG. 4)), the “soluble Aβ” value is on record as “significantly reduced”.
